In patent US20050209244A1, “N{5-[4-(4-methyl-piperazino-methyl)-benzoylamido]-2-methylphenyl}-4-(3-pyridyl)-2-pyrimidine-amine coated stents” (priority 2002, published 2005):

Experiments:
[1] = in conjunction with COMPOUND I
Description: Data points just spanning the IC50 of the agents alone or in combination are entered into the CalcuSyn program (CalcuSyn, Biosoft, Cambridge UK).

c-Met = c-Met (Homo sapiens, UniProt P08581); conditions: cited from earlier work
Jak-2 = Jak-2 (Homo sapiens, UniProt O60674); conditions: cited from earlier work
Flt-1 = Flt-1 (Homo sapiens, UniProt P17948); conditions: cited from earlier work
Kdr = Kdr (Homo sapiens, UniProt P35968); conditions: cited from earlier work
β-PDGF receptor = β-PDGF receptor (Homo sapiens, UniProt P09619); conditions: cited from earlier work
Tek = Tek (Homo sapiens, UniProt Q02763); conditions: cited from earlier work
Sequence of Tek (Q02763 23-1124, species assumed): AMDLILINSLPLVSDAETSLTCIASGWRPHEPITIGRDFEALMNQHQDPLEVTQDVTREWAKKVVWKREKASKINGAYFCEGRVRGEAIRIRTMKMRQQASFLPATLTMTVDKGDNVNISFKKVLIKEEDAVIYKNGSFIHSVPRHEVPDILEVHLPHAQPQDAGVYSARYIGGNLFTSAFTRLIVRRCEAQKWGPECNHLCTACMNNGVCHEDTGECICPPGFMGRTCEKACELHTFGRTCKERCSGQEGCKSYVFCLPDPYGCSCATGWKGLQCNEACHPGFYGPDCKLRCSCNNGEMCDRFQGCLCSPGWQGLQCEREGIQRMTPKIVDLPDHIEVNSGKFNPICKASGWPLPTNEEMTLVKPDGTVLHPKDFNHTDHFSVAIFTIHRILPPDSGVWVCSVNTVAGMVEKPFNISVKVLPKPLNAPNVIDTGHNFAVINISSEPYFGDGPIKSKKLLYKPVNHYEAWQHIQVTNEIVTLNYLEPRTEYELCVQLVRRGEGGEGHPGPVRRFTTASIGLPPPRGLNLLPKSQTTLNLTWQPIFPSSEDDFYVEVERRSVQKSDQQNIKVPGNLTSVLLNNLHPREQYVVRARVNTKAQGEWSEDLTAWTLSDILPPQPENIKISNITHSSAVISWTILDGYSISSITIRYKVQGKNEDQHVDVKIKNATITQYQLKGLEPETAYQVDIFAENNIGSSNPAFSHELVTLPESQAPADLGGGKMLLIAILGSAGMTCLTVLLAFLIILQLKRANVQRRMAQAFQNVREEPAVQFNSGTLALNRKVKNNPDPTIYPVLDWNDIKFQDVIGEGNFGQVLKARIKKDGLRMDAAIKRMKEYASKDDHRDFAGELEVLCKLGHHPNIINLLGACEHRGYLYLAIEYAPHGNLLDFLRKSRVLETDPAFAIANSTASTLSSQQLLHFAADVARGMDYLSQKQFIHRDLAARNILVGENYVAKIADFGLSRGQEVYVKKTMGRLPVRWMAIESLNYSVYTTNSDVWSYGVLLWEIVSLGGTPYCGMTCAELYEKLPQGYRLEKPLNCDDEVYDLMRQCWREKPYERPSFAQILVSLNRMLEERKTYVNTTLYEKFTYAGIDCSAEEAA

[2] = system: restenotic lesion formation; experiment: Rabbit iliac stent model, restenosis at 28 days; type: in vivo, New Zealand White rabbit
Procedure: A combined angioplasty and stenting procedure is performed in New Zealand White rabbit iliac arteries. Iliac artery balloon injury is performed by inflating a 3.0×9.0 mm angioplasty balloon in the mid-portion of the artery followed by “pull-back” of the catheter for 1 balloon length. Balloon injury is repeated 2 times, and a 3.0×12 mm stent is deployed at 6 atm for 30 seconds in the iliac artery. Balloon injury and stent placement is then performed on the contralateral iliac artery in the same manner. A post-stent deployment angiogram is performed. All animals receive oral aspirin 40 mg/day daily as anti-platelet therapy and are fed standard low-cholesterol rabbit chow. Twenty-eight days after stenting, animals are anesthetized and euthanized and the arterial tree is perfused at 100 mmHg with lactated Ringer's for several minutes, then perfused with 10% formalin at 100 mmHg for 15 minutes. The vascular section between the distal aorta and the proximal femoral arteries is excised and cleaned of periadventitial tissue. The stented section of artery is embedded in plastic and sections are taken from the proximal, middle, and distal portions of each stent. All sections are stained with hematoxylin-eosin and Movat pentachrome stains. Computerized planimetry is performed to determine the area of the internal elastic lamina (IEL), external elastic lamina (EEL) and lumen. The neointima and neointimal thickness is measured both at and between the stent struts. The vessel area is measured as the area within the EEL. Data are expressed as mean±SEM. Statistical analysis of the histologic data is accomplished using analysis of variance (ANOVA) due to the fact that two stented arteries are measured per animal with a mean generated per animal. A P<0.05 is considered statistically significant.
COMPOUND is administered orally by gavage at 30 mg/kg once daily from 3 days prior to stenting until day 27 post-stenting. […] There is extensive neointimal formation in placebo-treated animals at 28 days, with the lesions consisting of abundant smooth muscle cells in proteoglycan/collagen matrix and apparent full endothelial healing. In arterial segments from the animals treated with COMPOUND I, the Intima is well healed, characterized by a compact neointima consisting of smooth muscle cells and endothelium fully covering the lumen surface both over stent struts and between struts.

[3] = system: platelet-derived growth factor (PDGF) receptor; conditions: in vitro; cited from earlier work
α-PDGF receptor = α-PDGF receptor (Homo sapiens, UniProt P16234); conditions: cited from earlier work
[4] = molecular target: receptor for stem cell factor (Homo sapiens, UniProt P10721); conditions: cited from earlier work
Sequence of receptor for stem cell factor (P10721 26-976): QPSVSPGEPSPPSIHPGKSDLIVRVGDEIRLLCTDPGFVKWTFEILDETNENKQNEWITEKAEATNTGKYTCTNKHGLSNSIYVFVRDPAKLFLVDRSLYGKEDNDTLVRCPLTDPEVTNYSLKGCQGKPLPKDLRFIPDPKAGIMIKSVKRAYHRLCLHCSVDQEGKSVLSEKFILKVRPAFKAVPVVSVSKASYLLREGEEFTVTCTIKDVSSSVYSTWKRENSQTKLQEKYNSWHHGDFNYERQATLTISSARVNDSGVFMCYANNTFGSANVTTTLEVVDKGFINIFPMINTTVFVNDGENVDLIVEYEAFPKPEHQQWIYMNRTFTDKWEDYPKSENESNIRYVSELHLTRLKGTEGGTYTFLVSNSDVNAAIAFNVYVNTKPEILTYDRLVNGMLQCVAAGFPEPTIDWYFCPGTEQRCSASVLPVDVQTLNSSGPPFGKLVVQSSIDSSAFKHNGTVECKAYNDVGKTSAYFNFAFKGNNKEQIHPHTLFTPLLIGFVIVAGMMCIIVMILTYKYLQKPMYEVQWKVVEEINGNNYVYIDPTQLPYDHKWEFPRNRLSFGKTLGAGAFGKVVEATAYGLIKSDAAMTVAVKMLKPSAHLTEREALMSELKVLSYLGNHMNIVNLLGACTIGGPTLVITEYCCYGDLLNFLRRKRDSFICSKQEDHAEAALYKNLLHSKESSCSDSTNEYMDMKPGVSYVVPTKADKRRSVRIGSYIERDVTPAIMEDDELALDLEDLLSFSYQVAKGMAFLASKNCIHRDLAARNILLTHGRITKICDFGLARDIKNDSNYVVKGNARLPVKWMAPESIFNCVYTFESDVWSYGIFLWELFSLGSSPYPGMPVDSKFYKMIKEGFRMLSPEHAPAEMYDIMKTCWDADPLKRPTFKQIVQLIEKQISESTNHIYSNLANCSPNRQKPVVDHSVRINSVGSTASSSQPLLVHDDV

[5] = system: neointimal lesion formation; experiment: 28 day rat carotid artery balloon injury model; type: in vivo; conditions: for percent inhibition of neointimal lesion formation: 28 days post-balloon injury
Procedure: Compounds of formula I are tested in the following rat model.
Rats are dosed orally with placebo or a compound of formula 1. Daily dosing starts 3 days prior to surgery and continues for 31 days. Rat carotid arteries are balloon injured using a method described by Clowes et al., Lab. Invest. 1983;49;208-215. Following sacrifice at 28 days post-balloon Injury, carotid arteries are removed and processed for histologic and morphometric evaluation.

Flt-3 = molecular target: T1, Flt-3 (Homo sapiens, UniProt P36888); conditions: cited from earlier work
T1 sequence (P36888 27-993): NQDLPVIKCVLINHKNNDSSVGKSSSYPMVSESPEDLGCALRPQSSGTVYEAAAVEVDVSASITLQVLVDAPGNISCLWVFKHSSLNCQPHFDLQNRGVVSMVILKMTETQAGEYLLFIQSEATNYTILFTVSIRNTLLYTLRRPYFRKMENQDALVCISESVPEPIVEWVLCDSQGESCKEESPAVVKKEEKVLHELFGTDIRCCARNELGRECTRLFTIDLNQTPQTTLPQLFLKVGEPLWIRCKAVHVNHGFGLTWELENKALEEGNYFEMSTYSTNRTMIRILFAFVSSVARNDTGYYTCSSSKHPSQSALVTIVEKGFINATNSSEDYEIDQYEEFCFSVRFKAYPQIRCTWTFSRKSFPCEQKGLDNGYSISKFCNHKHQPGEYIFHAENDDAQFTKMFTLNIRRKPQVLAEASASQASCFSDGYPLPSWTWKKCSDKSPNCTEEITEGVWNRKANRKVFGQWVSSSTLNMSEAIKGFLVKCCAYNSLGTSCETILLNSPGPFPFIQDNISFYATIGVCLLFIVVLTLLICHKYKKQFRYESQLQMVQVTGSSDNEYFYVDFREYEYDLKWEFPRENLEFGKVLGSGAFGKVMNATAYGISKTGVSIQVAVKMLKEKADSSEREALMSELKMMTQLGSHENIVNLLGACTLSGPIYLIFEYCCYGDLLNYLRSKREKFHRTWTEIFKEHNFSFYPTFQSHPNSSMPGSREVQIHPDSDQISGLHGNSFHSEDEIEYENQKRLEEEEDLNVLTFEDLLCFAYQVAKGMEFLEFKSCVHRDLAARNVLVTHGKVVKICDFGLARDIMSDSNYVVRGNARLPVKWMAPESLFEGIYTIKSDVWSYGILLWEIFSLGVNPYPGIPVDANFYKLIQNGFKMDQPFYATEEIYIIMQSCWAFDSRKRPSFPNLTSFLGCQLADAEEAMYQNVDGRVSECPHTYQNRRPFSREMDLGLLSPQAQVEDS

[6] = 30 mg/kg orally once daily, 28 days after stenting

Sequence of Flt-1 (P17948 27-1338, species assumed): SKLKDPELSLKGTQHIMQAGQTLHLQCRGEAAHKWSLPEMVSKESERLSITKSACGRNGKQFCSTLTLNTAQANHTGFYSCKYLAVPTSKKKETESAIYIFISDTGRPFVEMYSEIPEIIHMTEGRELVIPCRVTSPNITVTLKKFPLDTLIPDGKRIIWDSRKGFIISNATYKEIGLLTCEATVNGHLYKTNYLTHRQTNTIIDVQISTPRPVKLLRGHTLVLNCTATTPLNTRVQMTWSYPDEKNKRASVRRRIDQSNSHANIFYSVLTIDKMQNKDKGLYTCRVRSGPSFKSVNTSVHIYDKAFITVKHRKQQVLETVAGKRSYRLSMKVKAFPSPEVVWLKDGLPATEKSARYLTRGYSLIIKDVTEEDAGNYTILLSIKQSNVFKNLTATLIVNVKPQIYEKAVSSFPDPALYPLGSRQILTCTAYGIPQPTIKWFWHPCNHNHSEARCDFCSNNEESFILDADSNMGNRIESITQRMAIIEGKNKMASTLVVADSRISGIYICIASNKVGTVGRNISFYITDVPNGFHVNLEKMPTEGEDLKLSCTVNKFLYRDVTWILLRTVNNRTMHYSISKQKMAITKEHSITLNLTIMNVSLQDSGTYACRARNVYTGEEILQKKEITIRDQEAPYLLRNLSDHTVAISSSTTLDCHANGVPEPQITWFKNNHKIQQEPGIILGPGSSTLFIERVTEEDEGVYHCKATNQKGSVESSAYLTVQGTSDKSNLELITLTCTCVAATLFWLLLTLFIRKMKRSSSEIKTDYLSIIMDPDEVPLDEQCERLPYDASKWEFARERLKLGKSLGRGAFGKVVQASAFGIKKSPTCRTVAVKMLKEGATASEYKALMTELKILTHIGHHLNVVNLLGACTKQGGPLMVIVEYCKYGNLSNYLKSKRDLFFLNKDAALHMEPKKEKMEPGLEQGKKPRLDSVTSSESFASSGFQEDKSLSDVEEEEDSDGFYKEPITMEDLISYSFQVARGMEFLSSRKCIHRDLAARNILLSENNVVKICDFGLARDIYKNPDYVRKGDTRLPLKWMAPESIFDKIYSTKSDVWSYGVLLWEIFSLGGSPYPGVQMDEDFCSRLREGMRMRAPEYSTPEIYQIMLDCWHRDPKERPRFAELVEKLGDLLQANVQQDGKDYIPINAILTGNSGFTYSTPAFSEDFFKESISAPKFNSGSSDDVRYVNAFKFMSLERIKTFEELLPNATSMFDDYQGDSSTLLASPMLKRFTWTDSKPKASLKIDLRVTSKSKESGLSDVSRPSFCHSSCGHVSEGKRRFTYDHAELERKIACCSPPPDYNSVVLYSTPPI
Sequence of c-Met (P08581 25-1390): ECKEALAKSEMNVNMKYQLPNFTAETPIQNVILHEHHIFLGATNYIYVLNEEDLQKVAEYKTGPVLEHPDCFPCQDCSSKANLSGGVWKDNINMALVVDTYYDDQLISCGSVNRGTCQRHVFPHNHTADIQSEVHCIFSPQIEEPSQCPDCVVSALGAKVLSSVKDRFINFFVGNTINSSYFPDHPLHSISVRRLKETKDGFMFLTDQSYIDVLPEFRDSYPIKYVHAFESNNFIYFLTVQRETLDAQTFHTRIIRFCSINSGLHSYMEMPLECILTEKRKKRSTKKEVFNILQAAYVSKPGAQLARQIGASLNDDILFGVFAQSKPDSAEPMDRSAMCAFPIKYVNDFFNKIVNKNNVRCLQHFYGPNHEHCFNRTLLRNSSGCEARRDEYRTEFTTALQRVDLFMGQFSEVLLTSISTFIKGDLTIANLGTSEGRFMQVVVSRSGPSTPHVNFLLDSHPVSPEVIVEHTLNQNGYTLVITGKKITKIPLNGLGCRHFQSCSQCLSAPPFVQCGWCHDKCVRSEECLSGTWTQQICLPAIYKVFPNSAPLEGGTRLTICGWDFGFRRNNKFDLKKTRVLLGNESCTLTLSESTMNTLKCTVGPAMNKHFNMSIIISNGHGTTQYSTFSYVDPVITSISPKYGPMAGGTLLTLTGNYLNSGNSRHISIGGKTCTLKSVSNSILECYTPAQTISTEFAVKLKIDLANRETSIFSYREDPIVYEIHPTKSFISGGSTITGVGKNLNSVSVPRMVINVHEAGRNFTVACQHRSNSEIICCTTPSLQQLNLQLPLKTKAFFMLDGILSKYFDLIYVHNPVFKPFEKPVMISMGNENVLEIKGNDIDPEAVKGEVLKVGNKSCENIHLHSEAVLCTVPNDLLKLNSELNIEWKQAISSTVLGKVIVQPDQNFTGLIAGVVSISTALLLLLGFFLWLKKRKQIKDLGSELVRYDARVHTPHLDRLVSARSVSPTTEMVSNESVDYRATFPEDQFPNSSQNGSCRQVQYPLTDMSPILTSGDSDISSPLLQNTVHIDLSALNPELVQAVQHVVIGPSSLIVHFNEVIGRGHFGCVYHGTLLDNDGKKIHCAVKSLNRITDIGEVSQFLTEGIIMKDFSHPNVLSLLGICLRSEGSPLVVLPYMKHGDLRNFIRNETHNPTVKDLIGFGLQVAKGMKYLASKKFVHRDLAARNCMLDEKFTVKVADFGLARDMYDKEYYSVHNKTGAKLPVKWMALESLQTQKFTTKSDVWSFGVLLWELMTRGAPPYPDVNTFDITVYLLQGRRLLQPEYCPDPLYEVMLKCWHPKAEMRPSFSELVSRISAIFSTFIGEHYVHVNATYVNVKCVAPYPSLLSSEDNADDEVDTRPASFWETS

SMILES: CC(=O)O[C@H]1C(=O)[C@@]2(C)[C@H]([C@H](OC(=O)c3ccccc3)[C@]3(O)C[C@H](OC(=O)[C@H](O)[C@@H](NC(=O)c4ccccc4)c4ccccc4)C(C)=C1C3(C)C)[C@]1(OC(C)=O)CO[C@@H]1C[C@@H]2O [Taxol, taxol]
- interaction with COMPOUND I in combination [1]: Slight synergism or synergy

SMILES: CC[C@]1(O)C[C@@H]2CN(CCc3c([nH]c4ccccc34)[C@@](C(=O)OC)(c3cc4c(cc3OC)N(C)[C@H]3[C@@](O)(C(=O)OC)[C@H](OC(C)=O)[C@]5(CC)C=CCN6CC[C@]43[C@@H]65)C2)C1 [Vinblastine, vinblastine]
- interaction with COMPOUND I in combination [1]: Slight synergism or synergy

SMILES: Cc1ccc(NC(=O)c2ccc(CN3CCN(C)CC3)cc2)cc1Nc1nccc(-c2cccnc2)n1 [COMPOUND I, N-{5-[4-(4-methyl-piperazino-methyl)-benzoylamido]-2-methylphenyl}-4-(3-pyridyl)-2-pyrimidine-amine]
- inhibition of c-Met (c-Met): no inhibition
- inhibition of Jak-2 (Jak-2): no inhibition
- inhibition of kinase activity of Flt-1 (Flt-1): not
- inhibition of kinase activity of Kdr (Kdr): not
- inhibition of kinase activity of β-PDGF receptor (β-PDGF receptor): potently inhibit
- inhibition of kinase activity of Tek (Tek): not
- EEL area compared with control [2, 6]: did not result in differences
- intima healing in arterial segments [2, 6]: well healed
- reduction in average neointimal thickness ([2]; 30 mg/kg orally once daily, 28 days after stenting, vs placebo, P<0.0001): 29%
- reduction in percent arterial stenosis ([2]; 30 mg/kg orally once daily, 28 days after stenting, vs placebo, P<0.0002): 17%
- reduction in neointimal area ([2]; 30 mg/kg orally once daily, 28 days after stenting, vs placebo, P<0.04): 17%
- fibrin deposit ([2]; rabbit iliac arteries, in-stent): reduced
- inhibition of PDGF receptor tyrosine kinase [3]: selectively inhibits
- inhibition of kinase activity of α-PDGF receptor (α-PDGF receptor): potently inhibit
- inhibition of kinase activity of the receptor for stem cell factor [4]: potently inhibit
- percent inhibition of neointimal lesion formation ([5]; 0.5 mg/kg oral daily): 17%
- percent inhibition of neointimal lesion formation ([5]; 2.0 mg/kg oral daily): 37%
- neointimal lesion formation at 28 days following balloon injury ([5]; oral daily, dose of from 0.2 to 3.5 mg, preferably 0.5 to 2.0 mg/kg): significantly reduce
- inhibition of kinase activity of Flt-3 (Flt-3): not

SMILES: COc1cccc2c1C(=O)c1c(O)c3c(c(O)c1C2=O)C[C@@](O)(C(=O)CO)C[C@@H]3O[C@H]1C[C@H](N)[C@H](O)[C@H](C)O1 [doxorubicin]
- interaction with COMPOUND I in combination [1]: Slight synergism or synergy
